According to US11633484B2, “Method for improving the oral bioavailability of a drug” (PharmaCytics B.V., priority 2017, dated 2023):

Experiments:
[1] = Determination of oral bioavailability of Abiraterone conjugates (plasma AUClast after oral gavage); type: in vivo; set-up: key to AUClast (total amount abiraterone and conjugate): AUClast value for Zytiga; +: 1.1-6-fold increase compared to Zytiga; ++: >7-fold increase compared to Zytiga; details: female Beagle dogs; for Conversion rate to Abiraterone: AUClast Abiraterone/AUClast conjugate + AUClast Abiraterone × 100%, oral 15 μmole/kg; for AUClast (total amount abiraterone and conjugate): single dose 15 μmole/kg by oral gavage, 24 h, fold increase compared to Zytiga
Experimental: (§1) Relative and absolute bioavailability may be determined in different animal models and according to different protocols. The following protocol is typical for determining bioavailability in female Beagle dogs. The animals were deprived from food over a time period of 8 h prior to administration and 2 h after administration of the test molecules. Water was supplied without limitation.
(§2) On the study day, the animals received test molecules, at a single dose of 15 μmole/kg, by oral gavage, formulated in mixtures of propylene glycol, ethanol and 0.9% NaCl+5% mannitol in water. Blood samples were collected from the jugular vein on the following time points: 0.25, 0.5, 1, 2, 4, 8 and 24 hours after dosing.
(§3) Pharmacokinetic parameters were calculated from concentration versus time data using non-compartmental pharmacokinetic methods using Phoenix pharmacokinetic software. Data are compared to Zytiga to establish improvement of its oral bioavailability by the Abiraterone conjugates.

[2] = system: β-glucosidase; test: Enzymatic removal of the glucose moiety (treatment with β-glucosidase), conversion to parent drug
[3] = oral application in rat; cited from earlier work
[4] = Determination of oral bioavailability of Rotigotine conjugate; type: in vivo, Beagle dogs; set-up: key to AUClast (total amount Rotigotine and conjugate): AUClast value for Rotigotine; ++: >6-fold increase compared to Rotigotine; details: for AUClast (total amount Rotigotine and conjugate): as Example 11 (Beagle dogs, oral gavage), fold increase compared to Rotigotine
Experimental: as §1, §2, §3
In a similar fashion as described in Example 11, the bioavailability increase of Rotigotine conjugate 28 was determined.

[5] = oral administration, rat; cited from earlier work
[6] = orally administered; cited from earlier work
[7] = Determination of oral bioavailability of Kalydeco conjugates; type: in vivo, Beagle dogs; set-up: key to AUClast (total amount Kalydeco and conjugate): AUClast value for Kalydeco; +: 1.1-6-fold increase compared to Kalydeco; details: for AUClast (total amount Kalydeco and conjugate): as Example 11 (Beagle dogs, oral gavage), fold increase compared to Kalydeco
Experimental: as §1, §2, §3
In a similar fashion as described in Example 11, the bioavailability increase of Kalydeco conjugate 17 was determined.

[8] = system: xenograft mouse model; details: oral administration; cited from earlier work

Structure (SMILES)	Conversion rate to Abiraterone [1]	AUClast (total amount abiraterone and conjugate) [1]	other results
CCCN(CO[C@H]1CC[C@@]2(C)C(=CCC3[C@@H]2CC[C@]2(C)C(c4cccnc4)=CC[C@@H]32)C1)C(=O)O[C@@H]1O[C@H](CO)C(O)[C@H](O)C1O (stereo partly drawn) [Compound 7c]	+++ (41-50%)	++ (>7-fold increase compared to Zytiga)	Conversion to Abiraterone and Kalydeco, respectively, upon treatment with β-glucosidase [2]: readily converted
CC(=O)O[C@H]1CC[C@@]2(C)C(=CC[C@@H]3[C@@H]2CC[C@]2(C)C(c4cccnc4)=CC[C@@H]32)C1 [3-O-Acetate (Zytiga), reference compound]	–	o	–
CN(CO[C@H]1CC[C@@]2(C)C(=CCC3[C@@H]2CC[C@]2(C)C(c4cccnc4)=CC[C@@H]32)C1)C(=O)O[C@@H]1O[C@H](CO)C(O)[C@H](O)C1O (stereo partly drawn) [Compound 7a]	+++ (41-50%)	–	–
C=CCN(CO[C@H]1CC[C@@]2(C)C(=CCC3[C@@H]2CC[C@]2(C)C(c4cccnc4)=CC[C@@H]32)C1)C(=O)O[C@@H]1O[C@H](CO)C(O)[C@H](O)C1O (stereo partly drawn) [Compound 7l]	+++ (41-50%)	++ (>7-fold increase compared to Zytiga)	–
C[C@]12C=CC(=O)C=C1CC[C@@H]1[C@@H]2[C@@H](O)C[C@@]2(C)[C@H]1CC[C@]2(O)C(=O)CO[C@@H]1O[C@H](CO)[C@@H](O)[C@H](O)[C@H]1O [prednisolone-21-O-β-D-glucoside]	–	–	Increase of serum levels with respect to prednisolone [3]: two-fold increase
CCN(CO[C@H]1CC[C@@]2(C)C(=CCC3[C@@H]2CC[C@]2(C)C(c4cccnc4)=CC[C@@H]32)C1)C(=O)O[C@@H]1O[C@H](CO)C(O)[C@H](O)C1O (stereo partly drawn) [Compound 7b]	++++ (>51%)	+ (1.1-6-fold increase compared to Zytiga)	–
C[C@]12CC[C@H](O[C@@H]3O[C@H](CO)[C@@H](O)[C@H](O)[C@H]3O)CC1=CCC1[C@@H]2CC[C@]2(C)C(c3cccnc3)=CC[C@@H]12 (stereo partly drawn) [3-O-β-Glucoside (33), 3-O-β-D-Glucopyranosyl-abiraterone, reference compound]	+ (1-20%)	+ (1.1-6-fold increase compared to Zytiga)	–
C[C@]12CC[C@H](OCN(C(=O)O[C@@H]3O[C@H](CO)C(O)[C@H](O)C3O)C3CCC3)CC1=CCC1[C@@H]2CC[C@]2(C)C(c3cccnc3)=CC[C@@H]12 (stereo partly drawn) [Compound 7g]	++ (21-40%)	++ (>7-fold increase compared to Zytiga)	–
CCCN(CCc1cccs1)[C@H]1CCc2c(O)cccc2C1 [Rotigotine, reference compound]	–	–	AUClast (total amount Rotigotine and conjugate) [4]: o
CO[C@@H]1O[C@H](COC(=O)NC(N)=NC(=O)Cc2c(Cl)cccc2Cl)[C@@H](O)[C@H](O)[C@H]1O	–	–	Relative Cmax compared to guanfacine [5]: lower value
C[C@@H]1C[C@H]2[C@@H]3CCC4=CC(=O)C=C[C@]4(C)[C@@]3(F)[C@@H](O)C[C@]2(C)[C@@]1(O)C(=O)COC1O[C@H](CO)[C@@H](O)[C@H](O)[C@H]1O (stereo partly drawn) [dexamethasone glucoside]	–	–	Fraction of oral dose that reached the caecum as a free steroid [6]: ~60%
CCCN(COc1cccc2c1CC[C@H](N(CCC)CCc1cccs1)C2)C(=O)O[C@@H]1O[C@H](CO)[C@@H](O)[C@H](O)[C@H]1O [Compound 28]	–	–	Conversion rate to Rotigotine ([4]; AUClast Rotigotine/(AUClast conjugate + AUClast Rotigotine) × 100%, as Example 11): ++++ (>51%); AUClast (total amount Rotigotine and conjugate) [4]: ++ (>6-fold increase compared to Rotigotine)
CC(C)(C)c1cc(C(C)(C)C)c(NC(=O)c2c[nH]c3ccccc3c2=O)cc1O [Kalydeco, reference compound]	–	–	AUClast (total amount Kalydeco and conjugate) [7]: o
COc1cc(C)c2cc(O[C@@H]3O[C@H](CO)[C@@H](O)[C@H](O)[C@H]3O)c(C)cc2c1C(C)C	–	–	Reduction of tumor volume [8]: 50%
COc1cc(C)c2cc(O)c(C)cc2c1C(C)C [7-hydroxy-3-methoxy cadalene]	–	–	Reduction of tumor volume [8]: did not show tumor volume reduction
CCCN(COc1cc(NC(=O)c2c[nH]c3ccccc3c2=O)c(C(C)(C)C)cc1C(C)(C)C)C(=O)O[C@@H]1O[C@H](CO)[C@@H](O)[C@H](O)[C@H]1O [Compound 17]	–	–	Conversion rate to Kalydeco ([7]; AUClast Kalydeco/AUClast conjugate + AUClast Kalydeco × 100%, as Example 11): ++++ (>51%); AUClast (total amount Kalydeco and conjugate) [7]: + (1.1-6-fold increase compared to Kalydeco); Conversion to Abiraterone and Kalydeco, respectively, upon treatment with β-glucosidase [2]: readily converted
CN(CO[C@H]1CC[C@@]2(C)C(=CCC3[C@@H]2CC[C@]2(C)C(c4cccnc4)=CC[C@@H]32)C1)C(=O)O[C@@H]1O[C@H](CO)C(O)[C@H](O)C1O (stereo partly drawn) [Compound 13]	++ (21-40%)	++ (>7-fold increase compared to Zytiga)	–
